Results from patent publication US10131652B2, “Pyrimidinyloxy benzene derivatives as herbicides” (E. I. DU PONT DE NEMOURS AND COMPANY, priority 2014, dated 2018).
Read-outs that look alike come from different tables or passages of the source.

How the values were obtained:
Format in all cases: in vivo
[1] = test system: waterhemp_RES2 (ALS & HPPD resistant common waterhemp, Amaranthus rudis); assay: Test F postemergence plant response; conditions: scale 0 to 100
Experimental: (§1) At the same time, plants from these crop and weed species and also waterhemp_RES1, (ALS & Triazine resistant common waterhemp, Amaranthus rudis), and waterhemp_RES2, (ALS & HPPD resistant common waterhemp, Amaranthus rudis) were treated with postemergence applications of test chemicals formulated in the same manner. Plants ranged in height from 2 to 18 cm for postemergence treatments (1- to 4-leaf stage).
(§2) Treated plants and controls were maintained in a greenhouse for 14 to 21 days, after which time all species were compared to controls and visually evaluated. Plant response ratings, summarized in Table F, are based on a scale of 0 to 100 where 0 is no effect and 100 is complete control. A dash (-) response means no test result.

[2] = test system: waterhemp_RES1 (ALS & Triazine resistant common waterhemp, Amaranthus rudis); assay: Test F postemergence plant response; conditions: scale 0 to 100
Experimental: as §1, §2

[3] = test system: kochia (Kochia scoparia); assay: Test F pre-/postemergence plant response; conditions: Bassia scoparia, pre-emergence, scale 0 to 100, read-out: Plant response rating, Kochia
Excerpt: (§3) Seeds of plant species selected from corn (Zea mays), soybean (Glycine max), velvetleaf (Abutilon theophrasti), lambsquarters (Chenopodium album), wild poinsettia (Euphorbia heterophylla), palmer pigweed (Amaranthus palmeri), waterhemp (common waterhemp, Amaranthus rudis), surinam grass (Brachiaria decumbens), large (Lg) crabgrass (Digitaria sanguinalis), Brazilian crabgrass (Digitaria horizontalis), fall panicum (Panicum dichotomiflorum), giant foxtail (Setaria faberii), green foxtail (Setaria viridis), goosegrass (Eleusine indica), johnsongrass (Sorghum halepense), ragweed (common ragweed, Ambrosia elatior), barnyardgrass (Echinochloa crus-galli), sandbur (southern sandbur, Cenchrus echinatus), arrowleaf sida (Sida rhombifolia), Italian ryegrass (Lolium multiflorum), dayflower (Virginia (VA) dayflower, Commelina virginica), field bindweed (Convolvulus arvensis), cocklebur (common cocklebur, Xanthium strumarium), momingglory (Ipomoea coccinea), nightshade (eastern black nightshade, Solanum ptycanthum), kochia (Kochia scoparia), yellow nutsedge (Cyperus esculentus), and hairy beggarticks (Bidens pilosa), were planted into a silt loam soil and treated preemergence with test chemicals formulated in a non-phytotoxic solvent mixture which included a surfactant.
as §1, §2

[4] = test system: palmer pigweed (Amaranthus palmeri); assay: Test F pre-/postemergence plant response; conditions: Amaranthus palmeri, scale 0 to 100, read-out: Plant response rating, Pigweed, Palmer
Excerpt: as §3, §1, §2

[5] = test system: Italian ryegrass (Lolium multiflorum); assay: Test F pre-/postemergence plant response; conditions: Lolium multiflorum, scale 0 to 100, read-out: Plant response rating, Ryegrass, Italian; for pest or weed control at 16 g/ha: 16 g ai/ha; for pest or weed control at 31 g/ha: 31 g ai/ha; for pest or weed control at 125 g/ha: 125 g ai/ha
Excerpt: as §3, §1, §2

[6] = test system: nightshade (eastern black nightshade, Solanum ptycanthum); assay: Test F pre-/postemergence plant response; conditions: Solanum, pre-emergence, scale 0 to 100, read-out: Plant response rating, Nightshade
Excerpt: as §3, §1, §2

[7] = test system: kochia (Kochia scoparia); assay: Test D postemergence plant response
How it was run: (§4)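 The formulated test chemicals were applied over the foliage of young potted plants (2 to 18 cm tall), which were then held under greenhouse conditions. Between days 13 and 15 each species was rated by eye versus controls, from 0 for no effect up to 100 for complete control.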

[8] = test system: wild oat (Avena fatua); assay: Test D postemergence plant response
How it was run: as §4

[9] = post-emergence, 8 g ai/ha Postemergence
[10] = pre-emergence, 8 g ai/ha Preemergence

FC(F)(F)c1cc(-c2ccccc2Oc2ncc(Cl)cn2)no1 [Compound 200, 5-chloro-2-[2-[5-(trifluoromethyl)-3-isoxazolyl]phenoxy]pyrimidine]
Plant response rating, Waterhemp_RES2 ([1]; 8 g ai/ha Postemergence): 75 | Plant response rating, Waterhemp_RES2 ([1]; 16 g ai/ha Postemergence): 95 | Plant response rating, Waterhemp_RES2 ([1]; 31 g ai/ha Postemergence): 95 | Plant response rating, Waterhemp_RES2 ([1]; 62 g ai/ha Postemergence): 98 | Plant response rating, Waterhemp_RES2 ([1]; 125 g ai/ha Postemergence): 98 | Plant response rating, Waterhemp_RES1 ([2]; 8 g ai/ha Postemergence): 70 | Plant response rating, Waterhemp_RES1 ([2]; 16 g ai/ha Postemergence): 75 | Plant response rating, Waterhemp_RES1 ([2]; 31 g ai/ha Postemergence): 90 | Plant response rating, Waterhemp_RES1 ([2]; 62 g ai/ha Postemergence): 95 | Plant response rating, Waterhemp_RES1 ([2]; 125 g ai/ha Postemergence): 98 | pest or weed control at 8 g/ha ([3]; 8 g ai/ha Preemergence): 20% | pest or weed control at 16 g/ha ([3]; 16 g ai/ha, Preemergence): 25% | pest or weed control at 31 g/ha ([3]; 31 g ai/ha, Preemergence): 50% | pest or weed control at 125 g/ha ([3]; 125 g ai/ha, Preemergence): 100% | pest or weed control at 62 g/ha ([3]; Preemergence): 80% | pest or weed control at 8 g/ha [4, 9]: 85% | pest or weed control at 16 g/ha ([4]; post-emergence, 16 g ai/ha Postemergence): 95% | pest or weed control at 31 g/ha ([4]; post-emergence, 31 g ai/ha Postemergence): 98% | pest or weed control at 62 g/ha ([4]; post-emergence, 62 g ai/ha Postemergence): 100% | pest or weed control at 125 g/ha ([4]; post-emergence, 125 g ai/ha Postemergence): 100% | pest or weed control at 8 g/ha [4, 10]: 0% | pest or weed control at 16 g/ha ([4]; pre-emergence, 16 g ai/ha Preemergence): 85% | pest or weed control at 31 g/ha ([4]; pre-emergence, 31 g ai/ha Preemergence): 100% | pest or weed control at 125 g/ha ([4]; pre-emergence, 125 g ai/ha Preemergence): 100% | pest or weed control at 62 g/ha ([4]; pre-emergence, Preemergence): 100% | pest or weed control at 8 g/ha [5, 9]: 0% | pest or weed control at 16 g/ha ([5]; post-emergence, Postemergence): 0% | pest or weed control at 31 g/ha ([5]; post-emergence, Postemergence): 0% | pest or weed control at 62 g/ha ([5]; post-emergence, 62 g ai/ha, Postemergence): 15% | pest or weed control at 125 g/ha ([5]; post-emergence, Postemergence): 20% | pest or weed control at 8 g/ha [5, 10]: 0% | pest or weed control at 16 g/ha ([5]; pre-emergence, Preemergence): 0% | pest or weed control at 31 g/ha ([5]; pre-emergence, Preemergence): 0% | pest or weed control at 125 g/ha ([5]; pre-emergence, Preemergence): 40% | pest or weed control at 62 g/ha ([5]; pre-emergence, Preemergence): 20% | pest or weed control at 8 g/ha ([6]; 8 g ai/ha Preemergence): 0% | pest or weed control at 16 g/ha ([6]; 16 g ai/ha Preemergence): 35% | pest or weed control at 31 g/ha ([6]; 31 g ai/ha Preemergence): 60% | pest or weed control at 125 g/ha ([6]; 125 g ai/ha Preemergence): 98% | pest or weed control at 62 g/ha ([6]; Preemergence): 98% | Plant response rating (scale 0 to 100), Kochia ([7]; 16 g ai/ha): 95 | pest or weed control at 31 g/ha ([7]; Bassia scoparia, post-emergence, 31 g ai/ha, scale 0 to 100 (0 no effect, 100 complete control), read-out: Kochia plant response rating): 100% | pest or weed control at 62 g/ha ([7]; Bassia scoparia, post-emergence, 62 g ai/ha, scale 0 to 100, 0 no effect, 100 complete control, read-out: Plant response rating, Kochia): 100% | pest or weed control at 125 g/ha ([7]; Bassia scoparia, post-emergence, 125 g ai/ha, scale 0 to 100, 0 no effect, 100 complete control, read-out: Plant response rating, Kochia): 100% | Plant response rating (scale 0 to 100), Oat, Wild ([8]; 16 g ai/ha): 20 | pest or weed control at 31 g/ha ([8]; Avena fatua, post-emergence, 31 g ai/ha, scale 0 to 100 (0 no effect, 100 complete control), read-out: Oat, Wild plant response rating): 30% | pest or weed control at 62 g/ha ([8]; Avena fatua, post-emergence, 62 g ai/ha, scale 0 to 100, 0 no effect, 100 complete control, read-out: Oat, Wild plant response rating): 30% | pest or weed control at 125 g/ha ([8]; Avena fatua, post-emergence, 125 g ai/ha, scale 0 to 100, 0 no effect, 100 complete control, read-out: Plant response rating, Oat, Wild): 55%
